Source: the supplement of paper PMC10307832

What was measured:
Assay in all cases: relative viability (nuclei count vs DMSO), 5 days (fraction); higher = more cells survive
VE-821 + Luminespib = compound: CS(=O)(=O)c1ccc(-c2cnc(N)c(C(=O)Nc3ccccc3)n2)cc1 [VE-821] + CCNC(=O)c1noc(-c2cc(C(C)C)c(O)cc2O)c1-c1ccc(CN2CCOCC2)cc1 [Luminespib] (partner 0.01 µM)
Outline: (§1)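 Five library-drug doses in √10 steps were combined with a fixed anchor-drug dose, or a single drug was given alone, by pin tool to lung cancer cell lines in 1536-well plates the day after seeding. Nuclei were stained and counted after 5 days. Relative viability is the nuclei count in treated wells over that in vehicle wells, taken as the median of duplicate plates.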

Vismodegib + Navitoclax = compound: CS(=O)(=O)c1ccc(C(=O)Nc2ccc(Cl)c(-c3ccccn3)c2)c(Cl)c1 [Vismodegib] + CC1(C)CCC(c2ccc(Cl)cc2)=C(CN2CCN(c3ccc(C(=O)NS(=O)(=O)c4ccc(N[C@H](CCN5CCOCC5)CSc5ccccc5)c(S(=O)(=O)C(F)(F)F)c4)cc3)CC2)C1 [Navitoclax] (partner 0.5 µM)
Outline: as §1

Ruxolitinib + OSI-027 = compound: N#CC[C@H](C1CCCC1)n1cc(-c2ncnc3[nH]ccc23)cn1 [Ruxolitinib] + COc1cccc2cc(-c3nc([C@H]4CC[C@H](C(=O)O)CC4)n4ncnc(N)c34)[nH]c12 [OSI-027] (partner 0.5 µM)
Outline: as §1

VE-821 + Lapatinib = compound: CS(=O)(=O)c1ccc(-c2cnc(N)c(C(=O)Nc3ccccc3)n2)cc1 [VE-821] + CS(=O)(=O)CCNCc1ccc(-c2ccc3ncnc(Nc4ccc(OCc5cccc(F)c5)c(Cl)c4)c3c2)o1 [Lapatinib] (partner 2 µM)
Outline: as §1

Cell Line	relative viability (VE-821 + Luminespib; first compound 0.08 µM)	relative viability (VE-821 + Luminespib; first compound 0.253 µM)	relative viability (VE-821 + Luminespib; first compound 0.8 µM)	relative viability (VE-821 + Luminespib; first compound 2.53 µM)	relative viability (VE-821 + Luminespib; first compound 8 µM)	relative viability (Vismodegib + Navitoclax; first compound 0.08 µM)	relative viability (Vismodegib + Navitoclax; first compound 0.253 µM)	relative viability (Vismodegib + Navitoclax; first compound 0.8 µM)	relative viability (Vismodegib + Navitoclax; first compound 2.53 µM)	relative viability (Vismodegib + Navitoclax; first compound 8 µM)	relative viability (Ruxolitinib + OSI-027; first compound 0.08 µM)	relative viability (Ruxolitinib + OSI-027; first compound 0.253 µM)	relative viability (Ruxolitinib + OSI-027; first compound 0.8 µM)	relative viability (Ruxolitinib + OSI-027; first compound 2.53 µM)	relative viability (Ruxolitinib + OSI-027; first compound 8 µM)	relative viability (VE-821 + Lapatinib; first compound 0.08 µM)	relative viability (VE-821 + Lapatinib; first compound 0.253 µM)	relative viability (VE-821 + Lapatinib; first compound 0.8 µM)	relative viability (VE-821 + Lapatinib; first compound 2.53 µM)	relative viability (VE-821 + Lapatinib; first compound 8 µM)
ChaGo-K-1	0.537	0.481	0.445	0.582	0.312	0.994	1.14	0.956	0.977	0.986	0.698	0.436	0.544	0.524	0.545	–	–	–	–	–
HCC-44	1.34	0.97	0.908	1.14	0.807	1.05	0.893	1.05	0.989	0.87	0.537	0.426	0.634	0.457	0.333	1.04	1.07	1.07	1.09	1.08
NCI-H441	0.289	0.386	0.602	0.307	0.363	0.808	0.734	0.722	0.554	0.689	0.675	0.471	0.836	0.56	0.521	–	–	–	–	–
NCI-H1299	–	–	–	–	–	1.03	1	1.09	0.935	1.01	–	–	–	–	–	0.948	0.885	0.915	0.913	0.771
LU99A	0.274	0.261	0.241	0.199	0.194	0.722	0.794	0.79	0.881	0.71	0.339	0.305	0.298	0.295	0.268	1.06	1.11	1.04	0.85	0.448
NCI-H520	0.218	0.24	0.191	0.276	0.227	1.06	1.12	0.941	1.12	1.09	0.317	–	0.278	0.239	0.326	0.874	0.845	–	0.789	0.519
EPLC-272H	0.265	0.301	0.179	0.288	0.221	1.01	1.2	1.09	1.09	1.09	0.275	0.282	0.291	0.267	0.272	1.07	0.976	1.12	1.24	0.848
PC-14	0.173	0.19	0.123	0.241	0.12	0.967	0.974	1.1	0.946	0.965	–	0.949	1.22	0.608	0.543	0.336	0.297	0.286	0.32	0.277
LCLC-103H	1.1	0.925	0.898	0.947	0.718	–	–	–	–	–	0.497	0.394	0.48	0.45	0.488	–	–	–	–	–
COR-L 105	0.692	0.771	0.51	0.632	0.524	0.733	0.721	1.02	0.777	0.781	0.535	0.536	0.705	0.667	0.531	0.383	0.354	0.341	0.351	0.463
NCI-H2342	0.8	0.65	0.552	0.708	0.717	–	–	–	–	–	0.557	0.564	0.674	0.585	0.736	–	–	–	–	–
SW 900	0.199	0.187	0.156	0.167	0.152	–	–	–	–	–	0.552	0.495	0.757	0.585	0.496	–	–	–	–	–
LOU-NH91	0.431	0.366	0.319	0.345	0.279	0.618	0.686	0.687	0.672	0.747	–	0.733	0.729	0.746	0.686	0.758	0.821	0.764	0.697	0.655
HCC-15	0.37	0.175	0.517	0.422	0.315	0.675	0.678	0.689	0.665	0.676	0.569	0.494	0.751	0.522	0.541	0.958	0.875	0.87	1.09	0.796
A-427	1.08	1	0.69	0.745	0.3	0.988	0.897	0.889	1	0.976	0.434	0.465	0.566	0.364	0.439	1.08	0.998	1.06	1.1	0.676
SW 1573	0.21	0.228	0.214	0.226	0.165	0.808	0.94	0.886	–	1.04	0.607	0.482	0.815	0.386	0.573	1.12	1.07	1.12	0.58	0.989
NCI-H2087	0.133	0.176	0.206	0.144	0.131	0.952	0.969	0.961	0.954	0.943	0.488	0.413	0.585	0.478	0.642	0.987	1.12	1.13	1.26	1.02
LK-2	0.18	0.182	0.149	0.205	0.181	0.818	0.734	0.797	0.859	0.784	0.222	0.187	0.18	0.182	0.214	1.18	0.891	0.891	0.906	0.874
